{"source": "paper PMC8037814", "about": "“Polymorphic Characterization, Pharmacokinetics, and Anti-Inflammatory Activity of Ginsenoside Compound K Polymorphs” (Molecules, 2021)", "key": {"[1]": {"conditions": "cited from earlier work"}, "[2]": {"test": "Pharmacokinetics after intravenous administration of CK in rats (10 mg/kg)", "type": "in vivo, Sprague-Dawley rats", "conditions": "i.v. 10 mg/kg; for half-life: read-out: t1/2z (converted)", "description": "All samples were analyzed with a triple quadrupole LC-MS/MS (API 4000 LC-MS/MS, AB Sciex, Framingham, MA, USA) coupled with an Agilent 1200 HPLC system (Agilent Technologies, Palo Alto, CA, USA). The MS was equipped with an electrospray system (ESI). The N2 gas temperature and ion-spray voltage were set to 550 °C and 4.5 kV, respectively. CK was measured in multiple reaction monitoring (MRM) mode using a negative electrospray ionization source at m/z 667.4 → 621.2 for CK (CID 25.6 v) and m/z 271.2 → 228.8 for internal standard (IS, (E)-5-(4-fluorostyryl)-2-isopropylbenzene-1,3-diol, Welichem Biotech Inc., Wayburne Drive Burnaby, BC, Canada) (CID 28.3 v) with a dwell time of 0.1 s.\nRats were divided randomly into 5 groups of six animals each (sex in half) and given 7 days to acclimatize to the facility before the experiments began. The four forms of CK were suspended in 0.5% sodium carboxymethyl cellulose (CMC-Na) solution and orally administered to rats at a dose of 20 mg/kg. A CK solution in a mixed solvent of dimethyl sulfoxide (DMSO)/castor oil/physiologic saline (3:5:92, v/v) was intravenously administered to the remaining group via the tail vein at a dose of 10 mg/kg. Blood samples were collected by retro-orbital puncture at the following times: 0.167, 0.333, 0.667, 1, 2, 3, 4, 6, 9, 12, and 24 h for the oral administration, and at 0.0083, 0.05, 0.133, 0.25, 0.5, 1, 2, 4, 6, and 9 h for the intravenous administration. Plasma samples were obtained by centrifuging a heparinized blood tube at 4000 rpm for 5 min and then stored at −70 °C until analysis.\nThe procedure for drug extraction from plasma samples was as follows: 0.2 mL acetonitrile, 0.2 mL plasma sample, and 10 μL IS (1 µg/mL) were added into a 1.5 mL Eppendorf-type tube. This mixture was vortexed for 1 min and then treated with 0.8 mL of methyl tert-butyl ether (MTBE) to precipitate the plasma proteins. After a mechanical vortex for 1 min and subsequent centrifugation (4000 rpm, 5 min), 0.8 mL of the supernatant was transferred and blow-dried with N2 at 40 °C in a water bath. Finally, the residue was dissolved in 120 μL of mobile phase, and then 10 μL was subjected to HPLC for analysis. […] Intra- and inter-day precision and accuracy never exceeded 15% by analyzing six replicate samples.\nThe CK pharmacokinetic parameters in rats, including the area under the curve (AUC(0–t) and AUC(0–∞)), mean residence time (MRT(0–t) and MRT(0–∞)), maximum concentration (Cmax), time to maximum concentration (Tmax), half-life (t1/2), apparent distribution volume (V), and total plasma clearance (CL), were derived from plasma concentration-time curves by using non-compartmental analysis (NCA) with DAS 2.0 software (Drug And Statistics, Mathematical Pharmacology Professional Committee of China, Shanghai, China). The absolute bioavailability (Fabs) was calculated from the dose-adjusted ratio of AUCp.o. to AUCi.v.. One-way analysis of variance (ANOVA) by SPSS 11.5 (SPSS Inc., Chicago, IL, USA) was conducted to compare the primary PK parameters."}, "[3]": {"conditions": "female rats, individual rats 1-3, 10 mg/kg"}, "[4]": {"conditions": "female, Sprague-Dawley, rat, plasma, iv, 10 mg/kg, female rats, Mean±SD"}}, "note": "“And” between values parts separate entries of the source, which are not always exact repeats. Equal values may be shown once. Read-outs that look alike come from different tables or passages of the source.", "data": [{"smiles": "CC(C)=CCCC(C)(OC1OC(CO)C(O)C(O)C1O)C1CCC2(C)C1C(O)CC1C3(C)CCC(O)C(C)(C)C3CCC12C", "note": "[CK, 20-O-β-D-glucopyranosyl-20(S)-protopanaxadiol]", "values": [{"measurement": "exposure levels of CK in females versus males", "setting": "[1]; healthy Chinese subjects", "value": "higher"}, {"measurement": "dose-normalized Cmax and t1/2 in females versus males", "setting": "[1]; multiple-dose trial in humans, day 1 and day 15", "value": "significantly higher"}, {"measurement": "Plasma concentrations of CK", "setting": "[2]; female rats, 0.5 min, individual rats 1-3, 10 mg/kg", "value": "54838.90 ng/mL and 127905.96 ng/mL and 48362.17 ng/mL"}, {"measurement": "Plasma concentrations of CK", "setting": "[2]; female rats, 0.05 h, individual rats 1-3, 10 mg/kg", "value": "15185.26 ng/mL and 25786.82 ng/mL and 6748.70 ng/mL"}, {"measurement": "Plasma concentrations of CK", "setting": "[2]; female rats, 8 min, individual rats 1-3, 10 mg/kg", "value": "1631.02 ng/mL and 4937.02 ng/mL and 980.77 ng/mL"}, {"measurement": "Plasma concentrations of CK", "setting": "[2]; female rats, 0.25 h, individual rats 1-3, 10 mg/kg", "value": "672.83 ng/mL and 1554.81 ng/mL and 553.32 ng/mL"}, {"measurement": "Plasma concentrations of CK", "setting": "[2]; female rats, 0.5 h, individual rats 1-3, 10 mg/kg", "value": "411.75 ng/mL and 359.74 ng/mL"}, {"measurement": "Plasma concentrations of CK", "setting": "[2]; female rats, 1 h, individual rats 1-3, 10 mg/kg", "value": "117.01 ng/mL and 136.73 ng/mL and 243.80 ng/mL"}, {"measurement": "Plasma concentrations of CK", "setting": "[2]; female rats, 2 h, individual rats 1-3, 10 mg/kg", "value": "136.06 ng/mL and 82.52 ng/mL"}, {"measurement": "Plasma concentrations of CK", "setting": "[2]; female rats, 4 h, individual rats 1-3, 10 mg/kg", "value": "63.54 ng/mL and 48.16 ng/mL and 99.22 ng/mL"}, {"measurement": "Plasma concentrations of CK", "setting": "[2]; female rats, 6 h, individual rats 1-3, 10 mg/kg", "value": "27.72 ng/mL and 22.95 ng/mL and 47.61 ng/mL"}, {"measurement": "Plasma concentrations of CK", "setting": "[2]; female rats, 9 h, individual rats 1-3, 10 mg/kg", "value": "27.31 ng/mL and 14.83 ng/mL and 34.93 ng/mL"}, {"measurement": "CLz/F", "setting": "[2]; female rats, Mean±SD", "value": "92.7 ± 34.3", "unit": "mL/min/kg"}, {"measurement": "Vz/F", "setting": "[2]; female rats, Mean±SD", "value": "17.75 ± 7.49", "unit": "L/kg"}, {"measurement": "AUC(0-t)", "setting": "[2]; [3]", "value": "3164.67 ng·h/mL and 6150.84 ng·h/mL and 2722.08 ng·h/mL"}, {"measurement": "AUC(0-∞)", "setting": "[2]; [3]", "value": "3206.10 ng·h/mL and 6173.20 ng·h/mL and 2779.29 ng·h/mL"}, {"measurement": "CLz/F", "setting": "[2]; [3]", "value": "104 mL/min/kg and 54 mL/min/kg and 120 mL/min/kg"}, {"measurement": "MRT(0-t)", "setting": "[2]; [3]", "value": "34.2 min and 15.6 min and 60 min"}, {"measurement": "MRT(0-∞)", "setting": "[2]; [3]", "value": "56.4 min and 20.4 min and 86.4 min"}, {"measurement": "Vz/F", "setting": "[2]; [3]", "value": "21.99 L/kg and 9.10 L/kg and 22.17 L/kg"}, {"measurement": "t1/2z", "setting": "[2]; [3]", "value": "117 min and 128 min"}, {"measurement": "concentration at 0.5 min", "setting": "[2]; female, Sprague-Dawley, rat, plasma, iv, 10 mg/kg, female rats, 0.5 min, Mean±SD, read-out: Plasma concentrations of CK", "value": "77000 ± 44200", "unit": "ng/mL"}, {"measurement": "concentration at 0.05 h", "setting": "[2]; female, Sprague-Dawley, rat, plasma, iv, 10 mg/kg, female rats, 0.05 h, Mean±SD, read-out: Plasma concentrations of CK", "value": "15900 ± 9540", "unit": "ng/mL"}, {"measurement": "concentration at 8 min", "setting": "[2]; female, Sprague-Dawley, rat, plasma, iv, 10 mg/kg, female rats, 8 min, Mean±SD, read-out: Plasma concentrations of CK", "value": "2520 ± 2120", "unit": "ng/mL"}, {"measurement": "concentration at 0.25 h", "setting": "[2]; female, Sprague-Dawley, rat, plasma, iv, 10 mg/kg, female rats, 0.25 h, Mean±SD, read-out: Plasma concentrations of CK", "value": "927 ± 547", "unit": "ng/mL"}, {"measurement": "concentration at 0.5 h", "setting": "[2]; female, Sprague-Dawley, rat, plasma, iv, 10 mg/kg, female rats, 0.5 h, Mean±SD, read-out: Plasma concentrations of CK", "value": "354 ± 60.4", "unit": "ng/mL"}, {"measurement": "concentration at 0.5 h", "setting": "[2]; female, Sprague-Dawley, rat, plasma, iv, 10 mg/kg, female rats, 0.5 h, individual rats 1-3, read-out: Plasma concentrations of CK", "value": 291, "unit": "ng/mL"}, {"measurement": "concentration at 1 h", "setting": "[2]; female, Sprague-Dawley, rat, plasma, iv, 10 mg/kg, female rats, 1 h, Mean±SD, read-out: Plasma concentrations of CK", "value": "166 ± 68.2", "unit": "ng/mL"}, {"measurement": "concentration at 2 h", "setting": "[2]; female, Sprague-Dawley, rat, plasma, iv, 10 mg/kg, female rats, 2 h, Mean±SD, read-out: Plasma concentrations of CK", "value": "102 ± 29.8", "unit": "ng/mL"}, {"measurement": "concentration at 2 h", "setting": "[2]; female, Sprague-Dawley, rat, plasma, iv, 10 mg/kg, female rats, 2 h, individual rats 1-3, read-out: Plasma concentrations of CK", "value": 86.6, "unit": "ng/mL"}, {"measurement": "concentration at 4 h", "setting": "[2]; female, Sprague-Dawley, rat, plasma, iv, 10 mg/kg, female rats, 4 h, Mean±SD, read-out: Plasma concentrations of CK", "value": "70.3 ± 26.2", "unit": "ng/mL"}, {"measurement": "concentration at 6 h", "setting": "[2]; female, Sprague-Dawley, rat, plasma, iv, 10 mg/kg, female rats, 6 h, Mean±SD, read-out: Plasma concentrations of CK", "value": "32.8 ± 13.1", "unit": "ng/mL"}, {"measurement": "concentration at 9 h", "setting": "[2]; female, Sprague-Dawley, rat, plasma, iv, 10 mg/kg, female rats, 9 h, Mean±SD, read-out: Plasma concentrations of CK", "value": "25.7 ± 10.1", "unit": "ng/mL"}, {"measurement": "AUC(0-inf)", "setting": "[2]; [4]", "value": "4050 ± 1850", "unit": "ng·h/mL"}, {"measurement": "AUC(0-t)", "setting": "[2]; female, Sprague-Dawley, rat, plasma, iv, 10 mg/kg, female rats, Mean±SD, read-out: AUC(0-t)", "value": "4010 ± 1870", "unit": "ng·h/mL"}, {"measurement": "MRT last", "setting": "[2]; female, Sprague-Dawley, rat, plasma, iv, 10 mg/kg, female rats, Mean±SD, read-out: MRT(0-t)", "value": "36.6 ± 22.2", "unit": "min"}, {"measurement": "MRT inf", "setting": "[2]; female, Sprague-Dawley, rat, plasma, iv, 10 mg/kg, female rats, Mean±SD, read-out: MRT(0-∞)", "value": "54.6 ± 33", "unit": "min"}, {"measurement": "half-life", "setting": "[2]; [4]", "value": "131 ± 15", "unit": "min"}, {"measurement": "half-life", "setting": "[2]; female, Sprague-Dawley, rat, plasma, iv, 10 mg/kg, female rats, individual rats 1-3", "value": 146, "unit": "min"}, {"measurement": "Plasma concentrations of CK", "setting": "[2]; male rats, 0.5 min, individual rats 1-3, 10 mg/kg", "value": "67670.83 ng/mL and 69233.93 ng/mL"}, {"measurement": "Plasma concentrations of CK", "setting": "[2]; male rats, 0.05 h, individual rats 1-3, 10 mg/kg", "value": "11403.43 ng/mL and 18155.87 ng/mL"}, {"measurement": "Plasma concentrations of CK", "setting": "[2]; male rats, 8 min, individual rats 1-3, 10 mg/kg", "value": "1214.82 ng/mL and 3002.82 ng/mL and 2609.85 ng/mL"}]}]}
